Data: patent US7098340B2, “Benzyl sulfonamide derivatives” (Warner Lambert Company LLC, priority 2003, dated 2006)

Target: T1, androgen receptor (Homo sapiens, UniProt P10275)
T1 sequence (P10275 1-920 Q868H): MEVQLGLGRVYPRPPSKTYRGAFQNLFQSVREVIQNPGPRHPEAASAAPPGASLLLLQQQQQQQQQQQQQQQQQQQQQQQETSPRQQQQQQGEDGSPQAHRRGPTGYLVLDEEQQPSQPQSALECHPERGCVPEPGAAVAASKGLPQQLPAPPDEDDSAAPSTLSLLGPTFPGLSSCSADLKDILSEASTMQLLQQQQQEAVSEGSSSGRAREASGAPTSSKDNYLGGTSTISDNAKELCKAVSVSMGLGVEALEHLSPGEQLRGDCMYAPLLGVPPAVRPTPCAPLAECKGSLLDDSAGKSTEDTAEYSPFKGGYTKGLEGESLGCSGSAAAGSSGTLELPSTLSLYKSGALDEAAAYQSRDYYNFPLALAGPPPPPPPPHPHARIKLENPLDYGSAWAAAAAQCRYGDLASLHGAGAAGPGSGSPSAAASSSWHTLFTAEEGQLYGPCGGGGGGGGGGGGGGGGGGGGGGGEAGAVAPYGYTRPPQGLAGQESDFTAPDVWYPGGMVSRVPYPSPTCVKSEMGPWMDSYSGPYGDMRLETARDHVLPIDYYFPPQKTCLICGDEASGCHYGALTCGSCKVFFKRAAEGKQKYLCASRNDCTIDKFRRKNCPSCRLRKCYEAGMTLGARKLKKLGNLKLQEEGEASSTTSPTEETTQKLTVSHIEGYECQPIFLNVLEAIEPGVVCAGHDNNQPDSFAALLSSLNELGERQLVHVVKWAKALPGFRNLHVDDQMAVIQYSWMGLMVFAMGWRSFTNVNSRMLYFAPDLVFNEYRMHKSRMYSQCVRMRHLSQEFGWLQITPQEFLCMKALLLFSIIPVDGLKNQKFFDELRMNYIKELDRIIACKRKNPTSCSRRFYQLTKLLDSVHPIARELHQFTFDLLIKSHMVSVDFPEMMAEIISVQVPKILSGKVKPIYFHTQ
Experiment: AR Antagonist Cell Assay (MMTV-luciferase reporter, DHT-stimulated)
Format: cell-based
Settings: MDA-MB453-MMTV clone 54-19 cells; antagonism of 100 pM DHT, 17 hr, luciferase readout
Method in brief: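 MDA-MB453 cells stably carrying MMTV-ARE-firefly luciferase, in 1% charcoal-treated serum, preincubated 30 min with compound (10 uM or 1 uM) then stimulated with 100 pM DHT for 17 h at 37° C. Luminescence read; result as % inhibition of DHT fold induction.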

| IC50 [µM] | SMILES |
| --- | --- |
| ~10 | O=c1cc(C(F)(F)F)c2cc(Cc3ccc(S(=O)(=O)NCc4ccc(Cl)cc4Cl)cc3)ccc2[nH]1 [Example 85, N-(2,4-Dichlorobenzyl)-4-(2-oxo-4-trifluoromethyl-1,2-dihydroquinolin-6-ylmethyl)-benzenesulfonamide] |
| 2.28 | O=c1cc(C(F)(F)F)c2cc(Cc3ccc(S(=O)(=O)NC4CCN(Cc5ccccc5)C4)cc3)ccc2[nH]1 (stereo not shown) [Example 86] |
| > 10 | O=c1cc(C(F)(F)F)c2cc(Cc3ccc(S(=O)(=O)NCc4c(F)ccc(F)c4Cl)cc3)ccc2[nH]1 [Example 87, N-(2-Chloro-3,6-difluorobenzyl)-4-(2-oxo-4-trifluoromethyl-1,2-dihydroquinolin-6-ylmethyl)-benzenesulfonamide] |
| > 10 | CCOC(=O)C(NS(=O)(=O)c1ccc(Cc2ccc3[nH]c(=O)cc(C(F)(F)F)c3c2)cc1)c1ccccc1 (stereo not shown) [Example 89, [4-(2-Oxo-4-trifluoromethyl-1,2-dihydroquinolin-6-ylmethyl)-benzenesulfonylamino]-phenylacetic acid ethyl ester] |
| 2.62 | O=c1cc(C(F)(F)F)c2cc(Cc3ccc(S(=O)(=O)NCc4cc(C(F)(F)F)ccc4F)cc3)ccc2[nH]1 [Example 90, N-(2-Fluoro-5-trifluoromethylbenzyl)-4-(2-oxo-4-trifluoromethyl-1,2-dihydroquinolin-6-ylmethyl)-benzenesutfonamide] |
| > 10 | CCOC(=O)CC(NS(=O)(=O)c1ccc(Cc2ccc3[nH]c(=O)cc(C(F)(F)F)c3c2)cc1)c1ccccc1 (stereo not shown) [Example 91, 3-[4-(2-Oxo-4-trifiuoromethyl-1,2-dihydroquinolin-6-ylmethyl)-benzenesulfonylamino]-3-phenylpropionic acid ethyl ester] |
| 2.71 | O=c1cc(C(F)(F)F)c2cc(Cc3ccc(S(=O)(=O)NCC(c4ccccc4)c4ccccc4)cc3)ccc2[nH]1 [Example 92, N-(2,2-Diphenylethyl)-4-(2-oxo-4-trifluoromethyl-1,2-dihydroquinolin-6-ylmethyl)-benzenesulfonamide] |
| > 10 | O=c1cc(C(F)(F)F)c2cc(Cc3ccc(S(=O)(=O)N[C@H]4CCCC[C@H]4OCc4ccccc4)cc3)ccc2[nH]1 [Example 93, N-(2-Benzyloxycyclohexyl)-4-(2-oxo-4-trifluoromethyl-1,2-dihydroquinolin-6-ylmethyl)-benzenesulfonamide] |
| > 10 | O=c1cc(C(F)(F)F)c2cc(Cc3ccc(S(=O)(=O)NCc4ccccc4Sc4ccccc4CO)cc3)ccc2[nH]1 [Example 94, N-[2-(2-Hydroxymethyl-phenylsulfanyl)benzyl]-4-(2-oxo-4-trifluoromethyl-1,2-dihydroquinolin-6-ylmethyl)-benzenesulfonamide] |
| 1.03 | O=c1cc(C(F)(F)F)c2cc(Cc3ccc(S(=O)(=O)N(CCO)C4CCCCC4)cc3)ccc2o1 [Example 95, N-Cyclohexyl-N-(2-hydroxyethyl)-4-(2-oxo-4-trifluoromethyl-2H-chromen-6-ylmethyl)benzenesulfonamide] |
| > 10 | CN1CCC(N(C)S(=O)(=O)c2ccc(Cc3ccc4oc(=O)cc(C(F)(F)F)c4c3)cc2)CC1 [Example 96, N-Methyl-N-(1-methylpipendin-4-yl)-4-(2-oxo-4-trifluoromethyl-2H-chromen-6-ylmethyl)-benzenesulfonamide] |
| 6.23 | CCCCN(CCCC)S(=O)(=O)c1ccc(Cc2ccc3oc(=O)cc(C(F)(F)F)c3c2)cc1 [Example 97, N,N-Dibutyl-4-(2-oxo-4-trifluoromethyl-2H-chromen-6-ylmethyl)benzenesulfonamide] |
| 2.43 | CCN(Cc1ccncc1)S(=O)(=O)c1ccc(Cc2ccc3oc(=O)cc(C(F)(F)F)c3c2)cc1 [Example 98, N-Ethyl-4-(2-oxo-4-trifluoromethyl-2H-chromen-6-ylmethyl)-N-pyridin-4-ylmethyl-benzenesulfonamide] |
| 4.15 | CCCCN(CC)S(=O)(=O)c1ccc(Cc2ccc3oc(=O)cc(C(F)(F)F)c3c2)cc1 [Example 99, N-Butyl-N-ethyl-4-(2-oxo-4-trifluoromethyl-2H-chromen-6-ylmethyl)benzenesulfonamide] |
| ~10 | CCCCN(CCO)S(=O)(=O)c1ccc(Cc2ccc3oc(=O)cc(C(F)(F)F)c3c2)cc1 [Example 100, N-Butyl-N-(2-hydroxyethyl)-4-(2-oxo-4-trifluoromethyl-2H-chromen-6-ylmethyl)-benzenesulfonamide] |
| 2.65 | CC(C)N(C)S(=O)(=O)c1ccc(Cc2ccc3oc(=O)cc(C(F)(F)F)c3c2)cc1 [Example 101, N-Isopropyl-N-methyl-4-(2-oxo-4-trifluoromethyl-2H-chromen-6-ylmethyl)-benzenesulfonamide] |

| IC50 [µM] | SMILES |
| --- | --- |
| 2.91 | CCCN(CCO)S(=O)(=O)c1ccc(Cc2ccc3oc(=O)cc(C(F)(F)F)c3c2)cc1 [Example 102, N-(2-Hydroxyethyl)-4-(2-oxo-4-trifluoromethyl-2H-chromen-6-ylmethyl)-N-propylbenzenesulfonamide] |
| ~10 | O=c1cc(C(F)(F)F)c2cc(Cc3ccc(S(=O)(=O)N(CCO)Cc4ccccc4)cc3)ccc2o1 [Example 103, N-Benzyl-N-(2-hydroxyethyl)-4-(2-oxo-4-trifluoromethyl-2H-chromen-6-ylmethyl)-benzenesulfonamide] |
| 1.79 | CCCN(CC1CC1)S(=O)(=O)c1ccc(Cc2ccc3oc(=O)cc(C(F)(F)F)c3c2)cc1 [Example 104, N-Cyclopropylmethyl-4-(2-oxo-4-trifluoromethyl-2H-chromen-6-ylmethyl)-N-propylbenzenesulfonamide] |
| 3.52 | CCCCCN(CCO)S(=O)(=O)c1ccc(Cc2ccc3oc(=O)cc(C(F)(F)F)c3c2)cc1 [Example 105] |
| > 10 | CN(C1CCCCC1)S(=O)(=O)c1ccc(Cc2ccc3oc(=O)cc(C(F)(F)F)c3c2)cc1 [Example 106, N-Cyclohexyl-N-methyl-4-(2-oxo-4-trifluoromethyl-2H-chromen-6-ylmethyl)-benzenesulfonamide] |
| 3.45 | CCCCN(C)S(=O)(=O)c1ccc(Cc2ccc3oc(=O)cc(C(F)(F)F)c3c2)cc1 [Example 107, N-Butyl-N-methyl-4-(2-oxo-4-trifluoromethyl-2H-chromen-6-ylmethyl)benzenesulfonamide] |
| 4.72 | CN(CCC#N)S(=O)(=O)c1ccc(Cc2ccc3oc(=O)cc(C(F)(F)F)c3c2)cc1 [Example 108, N-(2-Cyanoethyl)-N-methyl-4-(2-oxo-4-trifluoromethyl-2H-chromen-6-ylmethyl)-benzenesulfonamide] |
| 8.26 | O=c1cc(C(F)(F)F)c2cc(Cc3ccc(S(=O)(=O)N(Cc4ccccc4)Cc4ccccc4)cc3)ccc2o1 [Example 109, N,N-Dibenzyl-4-(2-oxo-4-trifluoromethyl-2H-chromen-6-ylmethyl)benzenesulfonamide] |
| 5.94 | CCN(Cc1ccccc1)S(=O)(=O)c1ccc(Cc2ccc3oc(=O)cc(C(F)(F)F)c3c2)cc1 [Example 110, N-Benzyl-N-ethyl-4-(2-oxo-4-trifluoromethyl-2H-chromen-6-ylmethyl)benzenesulfonamide] |
| 4.78 | CN(CCc1ccccn1)S(=O)(=O)c1ccc(Cc2ccc3oc(=O)cc(C(F)(F)F)c3c2)cc1 [Example 111, N-Methyl-4-(2-oxo-4-trifluoromethyl-2H-chromen-6-ylmethyl)-N-(2-pyridin-2-ylethyl)benzenesulfonamide] |
| > 10 | CN(CCc1ccccc1)S(=O)(=O)c1ccc(Cc2ccc3oc(=O)cc(C(F)(F)F)c3c2)cc1 [Example 112, N-Methyl-4-(2-oxo-4-trifluoromethyl-2H-chromen-6-ylmethyl)-N-phenethyl-benzenesulfonamide] |
| 0.72 | O=c1cc(C(F)(F)F)c2cc(Cc3ccc(S(=O)(=O)Nc4ccccc4)cc3)ccc2o1 [Example 113, 4-(2-Oxo-4-trifluoromethyl-2H-chromen-6-ylmethyl)-N-phenylbenzenesulfonamide] |
| 5.94 | CN(c1ccccc1)S(=O)(=O)c1ccc(Cc2ccc3oc(=O)cc(C(F)(F)F)c3c2)cc1 [Example 114, N-Methyl-4-(2-oxo-4-trifluoromethyl-2H-chromen-6-ylmethyl)-N-phenylbenzenesulfonamide] |
| 2.05 | Cc1cccc(NS(=O)(=O)c2ccc(Cc3ccc4oc(=O)cc(C(F)(F)F)c4c3)cc2)c1 [Example 115, 4-(2-Oxo-4-trifluoromethyl-2H-chromen-6-ylmethyl)-N-m-tolylbenzenesulfonamide] |
| 1.21 | Cc1ccc(NS(=O)(=O)c2ccc(Cc3ccc4oc(=O)cc(C(F)(F)F)c4c3)cc2)cc1 [Example 116, 4-(2-Oxo-4-trifluoromethyl-2H-chromen-6-ylmethyl)-N-p-tolylbenzenesulfonamide] |
